Experimental data reported in patent US7456187B2, “Furanopyrimidine compounds as potassium ion channel inhibitors” (Xention Limited, priority 2004, dated 2008).

Experiments:
human Kv1.5 = molecular target: T1, human Kv1.5 (Homo sapiens, UniProt P22460); assay: Kv1.5 Autopatch Electrophysiology (whole cell patch-clamp); assay type: cell-based; conditions: compound at 1 μM; cells stably transfected with human Kv1.5; room temperature (22-24° C.); voltage step to 0 mV for 1000 ms from -80 mV, total charge
T1 construct: expressed in transfected cells
T1 sequence (P22460 whole entry): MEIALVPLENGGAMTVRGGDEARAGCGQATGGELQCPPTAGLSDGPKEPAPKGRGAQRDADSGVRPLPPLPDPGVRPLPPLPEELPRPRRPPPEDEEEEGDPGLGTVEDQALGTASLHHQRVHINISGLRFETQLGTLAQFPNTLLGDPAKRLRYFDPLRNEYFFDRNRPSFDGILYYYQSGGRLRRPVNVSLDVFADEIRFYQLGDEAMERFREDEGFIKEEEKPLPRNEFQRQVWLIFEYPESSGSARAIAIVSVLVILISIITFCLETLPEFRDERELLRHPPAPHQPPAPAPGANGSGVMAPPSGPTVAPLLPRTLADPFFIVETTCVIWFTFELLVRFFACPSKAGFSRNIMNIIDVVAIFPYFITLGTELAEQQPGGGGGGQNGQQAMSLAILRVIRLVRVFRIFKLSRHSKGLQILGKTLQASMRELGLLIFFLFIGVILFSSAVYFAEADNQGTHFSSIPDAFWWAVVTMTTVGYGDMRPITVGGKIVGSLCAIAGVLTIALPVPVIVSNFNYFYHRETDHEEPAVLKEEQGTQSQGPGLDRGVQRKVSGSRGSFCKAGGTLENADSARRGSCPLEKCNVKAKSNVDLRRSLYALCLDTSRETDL
Protocol: Cells stably transfected with cDNA for human Kv1.5 (in pEF6::VA-His-TOPO) were grown in Dulbecco's Modified Eagle media (DMEM) alpha supplemented with 10% Fetal Calf Serum (FCS), 20 μl/ml penicillin (5000 U/ml) streptomycin (5000 μg/ml), 10 μl/ml [100×] glutamine, and blasticidin (7.5 μg/ml).
The external bathing solution contained (in mM): 150 NaCl, 10 KCl, […], 3 MgCl2, 1 CaCl2, 10 HEPES, pH 7.4. Patch pipettes were filled with an electrode solution of composition (in mM): 160 KCl, 0.5 MgCl2, 10 HEPES, 1 EGTA, pH 7.4 with KOH.
Compounds were dissolved in DMSO (100%) and made up in the external bather at a concentration of 1 μM. All experiments were conducted at room temperature (22-24° C.).
A cell suspension (10 ml), with a density of 100,000 cells/ml, was aliquoted into a 15 ml centrifuge tube and transferred to an incubator (37° C., 5% CO2) for approximately one hour before use. Following 60 min incubation, a tube was taken and centrifuged at 1000 rpm for 4 mins at room temperature. 9.5 ml supernatant was thene discarded, leaving a cell pellet at the bottom of the tube. The pellet was then resuspended using 100 μl of cold (4° C.), filtered (0.22 μm), 0.2% BSA/bather solution (0.02 g BSA/10 ml bather). The bottom of the tube was manually agitated gently until the solution became cloudy with cells. The 100 μl cell resuspension solution was then stored on the bench at 4° C. (using a Peltier-based temperature control device) until used.
A length of capillary glass (1B150F-4, WPI) was dipped into the cell suspension solution, such that ˜3 cm column of fluid was taken up by capillary action. An Ag/AgCl wire was dropped into the non-dipped end of the capillary also. The outside of the solution-filled end of the capillary was then dried and the capillary was loaded into the AutoPatch™.
Borosilicate glass patch pipettes (from 1.5 mm OD, thin-walled filamented, GC150-TF capillary glass, Harvard) were pulled using a DMZ pipette puller (Zeitz Instruments), and were back-filled using the internal pipette solution, being careful that no bubbles remain at the tip or in the body of the pipette. Patch pipettes typically had resistances of 2.3-3.5 MΩ. Once filled, the pipette tip and a proportion of the shaft (˜15 mm) were dipped into Sigmacote (Sigma). The recording pipette was then loaded into the AutoPatch™. Automated patch-clamping was initiated by the operator, but thereafter AutoPatch.exe continued the experiment providing that pre-set conditions and criteria were satisfied.
Whole cell patch-clamp recordings were made using the AutoPatch™ rig, which incorporated an EPC9 amplifier (HEKA, Germany) under control of Pulse software (v8.54, HEKA, Germany), a motion controller with 2 translators (Newport, UK), valve controller (VF1) and a c-level suction device all at room temperature (22-24° C.). This equipment was completely under the control of AutoPatch.exe and operator intervention was only made when there was a requirement to refill the drug reservoirs or to prevent the loss of a cell due to a technical error. Cells with an Rseries greater than 18MΩ were discounted from the experiment.
Qualification stages prior to perfusion and drug application ensured that the observed current met the criteria for the experiment. Only those cells with an IK>[…] were used for experiments. Cells were continuously perfused with external solution at a flow rate of 1.8-2 ml/minute. […] Online analysis of the hKv1.5 current during the application of compounds was performed by the AutoPatch™ software.
Electrophysiology voltage-step protocols and analysis of data was performed as follows. Data was sampled at 5 kHz, and filtered with a −3 dB bandwidth of 2.5 kHz. Cells were held at a voltage of −80 mV. Currents were evoked to a voltage step for 1000 ms in duration at 0 mV every 5 s. Currents were analysed using Pulsefit software (v8.54, HEKA, Germany), with the total charge measured during the whole of the voltage step. […]

Row | % Inhibition @1 (μM) (human Kv1.5) | inhibition at 1 µM (human Kv1.5) | melting point | SMILES
1 | 99.00% | – | – | c1ccc(-c2coc3nc(N4CCOCC4)nc(NCc4ccccn4)c23)cc1 [Example 42, (2-Morpholin-4-yl-5-phenyl-furo[2,3-d]pyrimidin-4-yl)-puridin-2-ylmethyl-amine]
2 | – | 98% | 52 to 54 °C | Cc1cccc(CNc2nc(N(C)C)nc3occ(-c4ccccc4)c23)n1 [Example 47, N^2,N^2-Dimethyl-N^4-(6-methyl-pyridin-2-ylmethyl)-5-phenyl-furo[2,3-d]pyrimidine-2,4-diamine]
3 | – | 39.8% | 162 to 164 °C | Fc1ccc(-c2coc3ncnc(NCc4ccccn4)c23)cc1 [Example 21, 5-(4-Fluorophenyl)-N-(pyridin-2-ylmethyl)furo[2,3-d]pyrimidin-4-amine]
4 | – | 99% | 108 to 110 °C | CN(C)c1nc(NCc2ccccn2)c2c(-c3ccccc3)coc2n1 [Example 46, N^2,N^2-Dimethyl-5-phenyl-N^4-pyridin-2-ylmethyl-furo[2,3-d]pyrimidine-2,4-diamine]
5 | – | 32% | 107 to 109 °C | Cc1oc2nc(N(C)C)nc(NCc3ccccn3)c2c1-c1ccc(F)cc1 [Example 50, 5-(4-Fluorophenyl)-6,N^2,N^2-trimethyl-N^4-pyridin-2-ylmethyl-furo[2,3-d]pyrimidine-2,4-diamine]
6 | 54.00% | – | – | c1ccc(-c2coc3ncnc(NCc4ccccn4)c23)cc1 [Example 22, 5-Phenyl-N-(pyridin-2′-ylmethyl)furo[2,3-d]pyrimidin-4-amine]
7 | – | 75% | – | Cc1oc2nc(N(C)C)nc(NCc3ccccn3)c2c1-c1ccccc1 [Example 49, 6,N^2,N^2-Trimethyl-5-phenyl-N4-pyridin-2-ylmethyl-furo[2,3-d]pyrimidine-2,4-diamine]
8 | 15.81% | – | – | COc1ccc(-c2coc3ncnc(NCc4ccccn4)c23)cc1OC [Example 24, 5-(3,4-Dimethoxyphenyl)-N-(pyridin-2′-ylmethyl)furo[2,3-d]pyrimidin-4-amine]
9 | – | 98% | – | CN(C)c1nc(NCc2ccco2)c2c(-c3ccccc3)coc2n1 [Example 48, N^4-Furan-2-ylmethyl-N^2,N^2-dimethyl-5-phenyl-furo[2,3-d]pyrimidine-2,4-diamine]
10 | 83.00% | – | – | Cc1oc2ncnc(NCc3ccccn3)c2c1-c1ccccc1 [Example 26, 6-Methyl-5-phenyl-N-(pyridin-2′-ylmethyl)furo[2,3-d]pyrimidin-4-amine]
11 | – | 42% | – | OCCN(CCO)c1nc(NCc2ccccn2)c2c(-c3ccc(F)cc3)coc2n1 [Example 45, 2-((2-Hydroxyethyl)-{5-(4-fluorophenyl)-4-[(pyridine-2-ylmethyl)-amino]-furo[2,3-d]pyrimidin-2-yl}-amino)-ethanol]
12 | 83.80% | – | – | Clc1ccc(-c2coc3ncnc(NCc4ccccn4)c23)cc1 [Example 23, 5-(4-Chlorophenyl)-N-(pyridin-2′-ylmethyl)furo[2,3-d]pyrimidin-4-amine]
13 | – | 99% | 97 to 99 °C | COCCOc1nc(NCc2ccccn2)c2c(-c3ccccc3)coc2n1 [Example 51, [2-(2-Methoxyethoxy)-5-phenyl-furo[2,3-d]pyrimidin-4-yl]-pyridin-2-ylmethylamine]
14 | – | 75% | – | OCC(CO)Nc1nc(NCc2ccccn2)c2c(-c3ccccc3)coc2n1 [Example 44, 2-{5-Phenyl-4-[(pyridin-2-ylmethyl)-amino]furo[2,3-d]pyrimidin-2-ylamino}-propane-1,3-diol]
15 | 65.17% | – | – | c1ccc(CNc2ncnc3occ(-c4ccc5c(c4)OCO5)c23)nc1 [Example 25, 5-(1,3-Benzodioxol-5′-yl)-N-(pyridin-2′-ylmethyl)furo[2,3-d]pyrimidin-4-amine]
16 | – | 99% | 96 to 98 °C | COCCNc1nc(NCc2ccccn2)c2c(-c3ccccc3)coc2n1 [Example 41, N^2-(2-Methoxyethyl)-5-phenyl-N^4-pyridin-2-ylmethyl-furo[2,3-d]pyrimidine-2,4-diamine]
17 | – | 82% | – | OCCN(CCO)c1nc(NCc2ccccn2)c2c(-c3ccccc3)coc2n1 [Example 43, 2-((2-Hydroxyethyl)-{5-Phenyl-4-[(pyridine-2-ylmethyl)-amino]-furo[2,3-d]pyrimidin-2-yl}-amino)-ethanol]
